This assay has as its target T1, Human GLP-1 receptor (Homo sapiens, UniProt P43220).
T1 construct: expressed in transfected cells
As to the kind of experiment: Measurement of GLP-1 receptor agonist activity (cAMP assay). Conditions: hGLP-1R/CHO-K1 cells; for Emax: cAMP with 2 nM human GLP-1 (7-36) = 100%, DMSO only = 0%; for EC50: increase in cAMP concentration as index, 37° C., 1 hour. The assay is classed as cell-based. The protocol:
Test Example 1: Measurement of GLP-1 Receptor Agonist Activity
Human GLP-1 receptor stably expressing cells (hGLP-1R/CHO-K1 cells) are cultured in an a-MEM medium (Sigma) containing 10% FBS (Hyclone), 2% GlutaMAX (Gibco), 1% G418 (Nacalai Tesque), and 1% Penicillin-Streptomycin Mixed Solution (Sigma) at 37° C. under 5% CO2 conditions, and recovered by treating a 10 fold diluted 5.0 g/l-trypsin/5.3 mmol/l-EDTA solution (Nacalai Tesque) and cryopreserved.
A DMSO solution containing the compound of the present invention or human GLP-1 (7-36) (Phoenix Pharmaceuticals) is dispensed into a 384-well microplate (Greiner) at 62.5 nL/well, and in addition, 400 μM Forskolin (Nacalai Tesque) is dispensed therein at 7.5 nL/well. Subsequently, the frozen GLP-1 R/CHO-K1 cells are thawed in a thermostatic bath at 37° C., suspended in HBSS buffer containing 0.1% BSA (Sigma), 20 mM HEPES (GIBCO), 0.1 mM IBMX (Sigma), and 0.2 mM RO20-1724 (Calbiochem) at 2×10^4 cells/mL, and the cell suspension is added at 6 μL/well. The solution was incubated at 37° C. for 1 hour and intracellular cAMP concentration is measured using CAMP Gs dynamic kit (Cisbio) according to the protocol attached to the product. Specifically, a cAMP-d2/Anti-cAMP-Cryptate (1/1) mixed solution is added in a total amount of 6 μL/well, the mixture is incubated at room temperature for 1 hour, and time-resolved fluorescence is measured using PHERAstar (BMG Labtech).
Assuming that the CAMP concentration when human GLP-1 (7-36) is dispensed to a final concentration of 2 nM is 100% and the CAMP concentration when only DMSO is dispensed is 0%, the 50% effective concentration (EC50) and the maximum effect (Emax) of the compound of the present invention are calculated using an increase in the CAMP concentration as an index, using TIBCO Spotfire (TIBCO Software). The dilution concentration or the dilution solvent are changed as necessary.
The compounds of the present invention were tested essentially as described above.
A general note: cAMP levels reflect the balance of adenylyl cyclase and phosphodiesterase activity.

This passage reports Emax and EC50 results from patent US20260265245A1, “AROMATIC HETEROCYCLIC DERIVATIVE HAVING GLP-1 RECEPTOR AGONIST ACTIVITY” (Shionogi & Co., Ltd., priority 2021, published 2026).

T1 sequence (P43220 24-463): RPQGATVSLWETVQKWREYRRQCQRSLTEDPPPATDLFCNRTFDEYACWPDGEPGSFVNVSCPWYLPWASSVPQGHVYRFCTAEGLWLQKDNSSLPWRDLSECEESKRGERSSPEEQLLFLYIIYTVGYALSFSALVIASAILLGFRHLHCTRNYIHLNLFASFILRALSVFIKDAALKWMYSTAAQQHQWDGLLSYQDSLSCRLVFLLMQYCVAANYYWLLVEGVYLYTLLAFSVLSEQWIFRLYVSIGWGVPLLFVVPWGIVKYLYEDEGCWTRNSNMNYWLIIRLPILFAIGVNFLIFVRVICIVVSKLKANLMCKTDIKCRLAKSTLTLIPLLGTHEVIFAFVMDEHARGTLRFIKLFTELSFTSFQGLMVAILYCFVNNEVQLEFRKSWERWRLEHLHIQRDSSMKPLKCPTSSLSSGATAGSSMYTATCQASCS

A word on the Emax: it is the maximal effect, on the per cent scale that the assay sets. The term EC50 denotes the concentration at which the effect is half-maximal. High values mean lower potency in that assay, low ones higher potency in that assay. The molecule `Oc1nnc(-c2c(Cl)nc(CN3CCC(c4cccc(OCc5ccc(Cl)cc5F)n4)CC3)n2C[C@@H]2CCO2)o1` [I - 005] returned a maximum response (Emax) of 98.7% and an EC50 of 16.2 nM.
In the same order, the values of `Oc1nnc(-c2c(Br)nc(CN3CCC(c4cccc(OCc5ccc(Cl)cc5F)n4)CC3)n2C[C@@H]2CCO2)o1` [I - 004] are 97% and 7 nM.
In turn, `C[C@H]1c2nc(OCc3ccc(Cl)cc3F)c(C(F)(F)F)cc2CCN1Cc1nc(Cl)c(/C=C/C(=O)O)n1C[C@@H]1CCO1` [I - 011] returned a maximal response (Emax) of 99.7% and an EC50 of 0.0965 nM.
`C[C@H]1c2cc(OCc3ccc(Cl)cc3F)c(C(F)(F)F)cc2CCN1Cc1nc(Br)c(/C=C/C(=O)O)n1C[C@@H]1CCO1` [I - 008] showed an Emax of 105% and an EC50 of 0.368 nM.
In the same order, the values of `C[C@]1(c2ccc(Cl)cc2F)Oc2cccc(C3CCN(Cc4nc(Cl)c(/C=C/C(=O)O)n4C[C@@H]4CCO4)CC3)c2O1` [I - 007] are 92% and 0.138 nM.
`O=C(O)/C=C/c1c(Br)nc(CN2CCC(c3cccc(OCc4ccc(Cl)cc4F)n3)CC2)n1C[C@@H]1CCO1` [I - 003] returned an Emax of 107% and an EC50 of 0.401 nM.
As for `Cn1c(CN2CCC(c3cccc(OCc4ccc(Cl)cc4F)n3)CC2)nc(Br)c1/C=C/C(=O)O` [I - 002], the Emax came out at 85% and the EC50 is 31.5 nM.
Regarding `O=C(O)/C=C/c1c(Cl)nc(CN2CCC(c3cccc(OCc4ccc(Cl)cc4F)n3)CC2)n1C[C@@H]1CCO1` [I - 006], the Emax was determined as 118% and a half-maximal response (EC50) required 1.41 nM.
The corresponding values for `Cn1c(/C=C/C(=O)O)cnc1CN1CCC(c2cccc(OCc3ccc(Cl)cc3F)n2)CC1` [I - 001] are 63.7% and 181 nM.
In the same order, the values of `C[C@H]1c2nc(OCc3ccc(Cl)cc3F)c(Cl)cc2CCN1Cc1nc(Br)c(/C=C/C(=O)O)n1C[C@@H]1CCO1` [I - 010] are 96% and 0.151 nM.
Consider `C[C@H]1c2nc(OCc3ccc(Cl)cc3F)c(C(F)F)cc2CCN1Cc1nc(Cl)c(/C=C/C(=O)O)n1C[C@@H]1CCO1` [I - 012], for which the maximal response (Emax) is 117% and the concentration for a half-maximal effect (EC50) came to 0.283 nM.
The corresponding values for `C[C@H]1c2nc(OCc3ccc(Cl)cc3F)c(C(F)(F)F)cc2CCN1Cc1ncc(/C=C/C(=O)O)n1C[C@@H]1CCO1` [I - 009] are 101% and 0.686 nM.
